Measurements taken from patent US12371454B2, “Cyclic peptide compound having Kras inhibitory action” (priority 2019, dated 2025).
Starred links: 1 amine or outer side, 2 acyl side, 3 side chain; linkers in the order of their positions; H or OH if unused. Positions of bridges follow the written chain, without caps; N, C: chain ends. Non-standard residues stand in square brackets, D forms with d. Residues, ends and D or L forms follow the SMILES beside them. *: point of attachment. hPhe(3-Cl-4-CF3) = N[C@@H](CCc1ccc(C(F)(F)F)c(Cl)c1)C(=O)O; hPhe(3-F,4-CF3) = N[C@@H](CCc1ccc(C(F)(F)F)c(F)c1)C(=O)O; NMePhe(3-CF3) = CN[C@@H](Cc1cccc(C(F)(F)F)c1)C(=O)O; NMePhe(4-CF3) = CN[C@@H](Cc1ccc(C(F)(F)F)cc1)C(=O)O; hPhe(4-CF3) = N[C@@H](CCc1ccc(C(F)(F)F)cc1)C(=O)O; Pro(cis-4-Ph) = O=C(O)[C@@H]1C[C@H](c2ccccc2)CN1; NMePhe(4-Cl) = CN[C@@H](Cc1ccc(Cl)cc1)C(=O)O; X35 = CN([C@@](C)(Cc1ccccc1)C(=O)[*:2])[*:1]; NMedβ3hAla = C[C@H](CC(=O)[*:2])N(C)[*:1]; NMeGly(cPent) = CN[C@H](C(=O)O)C1CCCC1; Phe(3-I) = N[C@@H](Cc1cccc(I)c1)C(=O)O; Pro(4,4-F2) = O=C(O)[C@@H]1CC(F)(F)CN1; NMeY = CN[C@@H](Cc1ccc(O)cc1)C(=O)O; NMeCha = CN[C@@H](CC1CCCCC1)C(=O)O; NMeChg = CN[C@H](C(=O)O)C1CCCCC1; NMeF = CN[C@@H](Cc1ccccc1)C(=O)O; NMeI = CC[C@H](C)[C@H](NC)C(=O)O; NMeD = CN[C@@H](CC(=O)O)C(=O)O; NMeL = CN[C@@H](CC(C)C)C(=O)O; NMeV = CN[C@H](C(=O)O)C(C)C; d(β3hA) = C[C@@H](N)CC(=O)O; NMeA = CN[C@@H](C)C(=O)O; Nle = CCCC[C@H](N)C(=O)O; Piperidide = C1CCN(*)CC1; Pyrrolidide = C1CCN(*)C1; dNMeA = CN[C@H](C)C(=O)O; Ac5c = NC1(C(=O)O)CCCC1; Aze = O=C(O)[C@@H]1CCN1; Ac4c = NC1(C(=O)O)CCC1; Sar = CNCC(=O)O

What follows are molecules tested against T1, Kras and SOS1 (biotin-tagged human Kras loaded with GDP, His-tagged human SOS1) (Homo sapiens, UniProt P01116, G12D) (assay: Protein-protein interaction inhibition between Kras and SOS1 (KrasGl2D-SOS PPI) using AlphaScreen). Settings: AlphaScreen; biotin-tagged human Kras loaded with GDP, His-tagged human SOS1; read-out: KRAS G12D-SOS PPI IC50.
T1 construct: made in house; host or cells: E. coli (stated for Kras only)
T1 sequence (P01116 1-188 isoform P01116-2 G12D): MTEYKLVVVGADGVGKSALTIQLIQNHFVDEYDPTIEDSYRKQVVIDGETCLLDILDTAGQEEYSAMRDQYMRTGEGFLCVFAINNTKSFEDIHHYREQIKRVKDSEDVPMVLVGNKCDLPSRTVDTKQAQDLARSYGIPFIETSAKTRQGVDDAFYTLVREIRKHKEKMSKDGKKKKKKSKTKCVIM
Format: binding
Outline: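 Energy transfer from nickel-chelate donor beads bound to His-SOS1 to streptavidin acceptor beads bound to biotin-Kras, expressed in E. coli and loaded with GDP after purification, was monitored. Donors were excited at 680 nm; singlet oxygen reaching acceptors gave emission read at 520-620 nm.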

SMILES | IC50 [nM]
CC[C@H](C)[C@@H]1NC(=O)[C@H](C)N(C)C(=O)C[C@@H](C(=O)N2CCCC2)NC(=O)[C@H](CC(C)C)N(C)C(=O)[C@H](Cc2ccccc2)N(C)C(=O)[C@@H]2CCCN2C(=O)[C@H](CCc2ccc(C(F)(F)F)cc2)NC(=O)CN(C)C(=O)[C@H](Cc2ccc(Cl)cc2)N(C)C(=O)CN(C)C(=O)CN(C)C1=O [Compound 1048] ([NMeA]I[Sar][Sar][NMePhe(4-Cl)][Sar][hPhe(4-CF3)]P[NMeF][NMeL]D-Pyrrolidide; lactam N-11) | 18
CC[C@H](C)[C@@H]1NC(=O)[C@H](CC(C)C)N(C)C(=O)C[C@@H](C)NC(=O)[C@H](C(C)C)N(C)C(=O)C2(CCCC2)NC(=O)[C@@H]2CCCN2C(=O)[C@H](CCc2ccc(C(F)(F)F)c(Cl)c2)NC(=O)CN(C)C(=O)[C@H](CC2CCCCC2)N(C)C(=O)[C@@H]2CCCN2C(=O)CN(C)C1=O [Compound 1050] (cyclo([Ac5c][NMeV][d(β3hA)][NMeL]I[Sar]P[NMeCha][Sar][hPhe(3-Cl-4-CF3)]P)) | 49
CCCC[C@@H]1NC(=O)[C@H](Cc2cccc(I)c2)NC(=O)CN(C)C(=O)[C@H](Cc2ccc(Cl)cc2)N(C)C(=O)CN(C)C(=O)CN(C)C(=O)[C@H]([C@@H](C)CC)NC(=O)[C@H](CC(C)C)N(C)C(=O)C[C@@H](C(=O)N2CCCCC2)N(C)C(=O)[C@H](CC(C)C)NC(=O)[C@H](Cc2cccc(C(F)(F)F)c2)N(C)C1=O [Compound 1052] ([NMeL]I[Sar][Sar][NMePhe(4-Cl)][Sar][Phe(3-I)][Nle][NMePhe(3-CF3)]L[NMeD]-Piperidide; lactam N-11) | 110
CC[C@H](C)[C@@H]1NC(=O)[C@H](CC(C)C)N(C)C(=O)C[C@@H](C(=O)N2CCCCC2)N(C)C(=O)[C@H](C2CCCCC2)N(C)C(=O)C2(CCCC2)NC(=O)[C@@H]2C[C@H](c3ccccc3)CN2C(=O)[C@H](CCc2ccc(C(F)(F)F)c(Cl)c2)NC(=O)CN(C)C(=O)[C@H](CC2CCCCC2)N(C)C(=O)[C@@H]2CCN2C(=O)[C@H](C)N(C)C1=O [Compound 1053] ([NMeL]I[NMeA][Aze][NMeCha][Sar][hPhe(3-Cl-4-CF3)][Pro(cis-4-Ph)][Ac5c][NMeChg][NMeD]-Piperidide; lactam N-11) | 6.7
CCCC[C@@H]1NC(=O)[C@H](Cc2cccc(I)c2)NC(=O)CN(C)C(=O)[C@H](Cc2ccc(OC)cc2)N(C)C(=O)[C@@H]2CCN2C(=O)CN(C)C(=O)[C@H]([C@@H](C)CC)NC(=O)[C@H](CC(C)C)N(C)C(=O)C[C@@H](C(=O)N2CCCCC2)N(C)C(=O)[C@H](CC(C)C)NC(=O)[C@](C)(Cc2ccccc2)N(C)C1=O [Compound 1058] ([NMeL]I[Sar][Aze][NMeY](Me)[Sar][Phe(3-I)][Nle][X35]L[NMeD]-Piperidide; lactam N-11) | 14
CC[C@H](C)[C@@H]1NC(=O)[C@H](CC(C)C)N(C)C(=O)C[C@@H](C(=O)N2CCCCC2)N(C)C(=O)[C@H](CC(C)C)N(C)C(=O)C2(CCCC2)NC(=O)[C@@H]2CCCN2C(=O)[C@H](CCc2ccc(C(F)(F)F)c(F)c2)NC(=O)CN(C)C(=O)[C@H](Cc2ccc(Cl)cc2)N(C)C(=O)CN(C)C(=O)CN(C)C1=O [Compound 1061] ([NMeL]I[Sar][Sar][NMePhe(4-Cl)][Sar][hPhe(3-F,4-CF3)]P[Ac5c][NMeL][NMeD]-Piperidide; lactam N-11) | 14
CC[C@H](C)[C@@H]1NC(=O)[C@H](CC(C)C)N(C)C(=O)C[C@@H](C(=O)N(C)C)N(C)C(=O)[C@H](C2CCCC2)N(C)C(=O)C2(CCCC2)NC(=O)[C@H](Cc2ccc(Cl)cc2)N(C)C(=O)[C@H](CCc2ccc(C(F)(F)F)c(Cl)c2)NC(=O)CN(C)C(=O)[C@H](CC2CCCCC2)N(C)C(=O)[C@@H]2CCN2C(=O)[C@H](C)N(C)C1=O [Compound 1063] ([NMeL]I[NMeA][Aze][NMeCha][Sar][hPhe(3-Cl-4-CF3)][NMePhe(4-Cl)][Ac5c][NMeGly(cPent)][NMeD]-NMe2; lactam N-11) | 43
CC[C@H](C)[C@@H]1NC(=O)[C@H](C)N(C)C(=O)C[C@@H](C)NC(=O)[C@H](C2CCCC2)N(C)C(=O)C2(CCCC2)NC(=O)[C@@H]2CCCN2C(=O)[C@H](CCc2ccc(C(F)(F)F)c(Cl)c2)NC(=O)[C@@H](C)N(C)C(=O)[C@H](Cc2ccc(Cl)cc2)N(C)C(=O)CN(C)C(=O)CN(C)C1=O [Compound 1065] (cyclo([Ac5c][NMeGly(cPent)][d(β3hA)][NMeA]I[Sar][Sar][NMePhe(4-Cl)][dNMeA][hPhe(3-Cl-4-CF3)]P)) | 70
CC[C@H](C)[C@@H]1NC(=O)[C@H](CC(C)C)N(C)C(=O)C[C@@H](C)N(C)C(=O)[C@H]([C@@H](C)CC)N(C)C(=O)C2(CCC2)NC(=O)[C@@H]2CC(F)(F)CN2C(=O)[C@H](CCc2ccc(C(F)(F)F)c(Cl)c2)NC(=O)CN(C)C(=O)[C@H](Cc2ccc(C(F)(F)F)cc2)N(C)C(=O)CN(C)C(=O)CN(C)C1=O [Compound 1074] (cyclo([Ac4c][NMeI][NMedβ3hAla][NMeL]I[Sar][Sar][NMePhe(4-CF3)][Sar][hPhe(3-Cl-4-CF3)][Pro(4,4-F2)])) | 11
